Data on one compound can be found in PMC7337938 (2020).

Test [1] deals with Zsw77 (RNA, riboswitch) GGAUACAGGACUGGCGGAUUAGUGGAAGCAACCACGUGGACUGUAUCCGAAGAAAAGCCGACCGCCUGGGCAAAAA
Put plainly: ITC. Particulars: K+ 50 mM KCl + 25 mM potassium phosphate; Mg2+ 10 mM MgCl2 (assumed from NMR prep); pH 6.2; 60 μM RNA; stoichiometry free, binding-competent fraction 53%.

The test system of test [2] is Zsw81 (RNA, riboswitch) GGAUACAGGACUGGCGGAUUAGUGGAAGCAACCACGUGGACUGUAUCCGAAGAAAAGCCGACCGCCUGGGCAAAAAUUAG
The test can be described thus: ITC. Particulars: K+ 50 mM KCl + 25 mM potassium phosphate; Mg2+ 10 mM MgCl2 (assumed from NMR prep); pH 6.2; 60 μM RNA; stoichiometry free, binding-competent fraction 13%.

The test system of test [3] is Zsw91 (RNA, riboswitch) GGAUACAGGACUGGCGGAUUAGUGGAAGCAACCACGUGGACUGUAUCCGAAGAAAAGCCGACCGCCUGGGCAAAAAUUAGCCCAGGCGGU
Put plainly: ITC. Particulars: K+ (50 mM KCl, 25 mM potassium phosphate); Mg2+ for ITC not stated; pH 6.2; 60 μM RNA, 600 μM ZMP in syringe.

For test [4], the system named is Zsw101 (RNA, riboswitch) GGAUACAGGACUGGCGGAUUAGUGGAAGCAACCACGUGGACUGUAUCCGAAGAAAAGCCGACCGCCUGGGCAAAAAUUAGCCCAGGCGGUAUUUAUUUUU
Put plainly: 1H NMR. As to conditions: 50 mM KCl, 25 mM potassium phosphate, Mg2+; pH 6.2.

Test [5] relates to Zsw48+Zsw15 (RNA, riboswitch) GGAUACAGGACUGGCGGAUUAGUGGAAGCAACCACGUGGACUGUAUCCG/GCCGACCGCCUGGGC
The test can be described thus: 1H NMR. As to conditions: 50 mM KCl, 25 mM potassium phosphate, 10 mM Mg2+; pH 6.2; 100 μM RNA, 2 eq. ZMP; affinity lower than Zsw77.

For test [6], the system named is Zsw83 (RNA, riboswitch) GGAUACAGGACUGGCGGAUUAGUGGAAGCAACCACGUGGACUGUAUCCGAAGAAAAGCCGACCGCCUGGGCAAAAAUUAGCC
Put plainly: 1H NMR titration. Particulars: 50 mM KCl, 25 mM potassium phosphate, 10 mM Mg2+; pH 6.2; 120 μM RNA; up to 2 eq. ZMP.

Test [7] has as its system Zsw84 (RNA, riboswitch) GGAUACAGGACUGGCGGAUUAGUGGAAGCAACCACGUGGACUGUAUCCGAAGAAAAGCCGACCGCCUGGGCAAAAAUUAGCCC
The test can be described thus: 1H NMR titration. Particulars: 50 mM KCl, 25 mM potassium phosphate, 10 mM Mg2+; pH 6.2; up to 2 eq. ZMP.

For test [8], the system named is Zsw85 (RNA, riboswitch) GGAUACAGGACUGGCGGAUUAGUGGAAGCAACCACGUGGACUGUAUCCGAAGAAAAGCCGACCGCCUGGGCAAAAAUUAGCCCA
Put plainly: 1H NMR titration. Particulars: 50 mM KCl, 25 mM potassium phosphate, 10 mM Mg2+; pH 6.2; up to 2 eq. ZMP.

Test [9] has as its system Zsw86 (RNA, riboswitch) GGAUACAGGACUGGCGGAUUAGUGGAAGCAACCACGUGGACUGUAUCCGAAGAAAAGCCGACCGCCUGGGCAAAAAUUAGCCCAG
Put plainly: 1H NMR titration. As to conditions: 50 mM KCl, 25 mM potassium phosphate, 10 mM Mg2+; pH 6.2; up to 2 eq. ZMP.

The test system of test [10] is Zsw87 (RNA, riboswitch) GGAUACAGGACUGGCGGAUUAGUGGAAGCAACCACGUGGACUGUAUCCGAAGAAAAGCCGACCGCCUGGGCAAAAAUUAGCCCAGG
The test can be described thus: 1H NMR titration. As to conditions: 50 mM KCl, 25 mM potassium phosphate, 10 mM Mg2+; pH 6.2; up to 2 eq. ZMP.

In test [11] the test system is Zsw89 (RNA, riboswitch) GGAUACAGGACUGGCGGAUUAGUGGAAGCAACCACGUGGACUGUAUCCGAAGAAAAGCCGACCGCCUGGGCAAAAAUUAGCCCAGGCG
The test can be described thus: 1H NMR titration. As to conditions: 50 mM KCl, 25 mM potassium phosphate, 10 mM Mg2+; pH 6.2; up to 2 eq. ZMP.

The test system of test [12] is Zsw90 (RNA, riboswitch) GGAUACAGGACUGGCGGAUUAGUGGAAGCAACCACGUGGACUGUAUCCGAAGAAAAGCCGACCGCCUGGGCAAAAAUUAGCCCAGGCGG
Put plainly: 1H NMR titration. As to conditions: 50 mM KCl, 25 mM potassium phosphate, 10 mM Mg2+; pH 6.2; up to 2 eq. ZMP.

Test [13] relates to Zsw82 (RNA, riboswitch) GGAUACAGGACUGGCGGAUUAGUGGAAGCAACCACGUGGACUGUAUCCGAAGAAAAGCCGACCGCCUGGGCAAAAAUUAGC
Put plainly: ITC and 1H NMR titration. Particulars: 50 mM KCl, 25 mM potassium phosphate, 10 mM Mg2+ (NMR); pH 6.2; minor binding-competent population prevented curve fitting.

Test [14] has as its system Zsw77 (RNA, riboswitch) GGAUACAGGACUGGCGGAUUAGUGGAAGCAACCACGUGGACUGUAUCCGAAGAAAAGCCGACCGCCUGGGCAAAAA
The test can be described thus: 1H NMR titration, U42 imino intensity. As to conditions: 50 mM KCl, 25 mM potassium phosphate, 10 mM Mg2+; pH 6.2; RNA concentration free in fit, binding-competent fraction 70%.

Test [15] deals with Zsw81 (RNA, riboswitch) GGAUACAGGACUGGCGGAUUAGUGGAAGCAACCACGUGGACUGUAUCCGAAGAAAAGCCGACCGCCUGGGCAAAAAUUAG
The test can be described thus: 1H NMR titration, U42 imino intensity. As to conditions: 50 mM KCl, 25 mM potassium phosphate, 10 mM Mg2+; pH 6.2; RNA concentration free in fit, binding-competent fraction 43%.

With `NC(=O)c1ncn([C@@H]2O[C@H](COP(=O)(O)O)[C@@H](O)[C@H]2O)c1N`, the dissociation constant in test [1] amounted to 0.57 µM; in [2], 0.54 µM; in [14], 2.78 µM; in test [15], 2.58 µM. Also, the binding result in test [3] is listed as “no”; in test [4], “no”; in [5], “yes”; in [6], “no”; in test [7], “no”; in [8], “no”. The binding entry in test [9] was “no”; in test [10], “no”; in test [11], “no”; in test [12], “no”; in test [13] it was “weak”.
